Laboratory results from patent US12653181B2, “Control of ripening and senescence in pre-harvest and post-harvest plants and plant materials by manipulating alternative oxidase activity” (Washington State University, priority 2012, dated 2026).
Entries after “also recorded” stand apart in the source; their conditions may differ.

Key:
[1] = test system: Wild type tomatoes (var. 'Ailsa Craig'); assay: Ripening (visual pigmentation) of wild type mature green tomato fruit; assay type: in vivo; conditions: for ripening response (pigmentation green to red) versus deionized water control: treated or injected with 1 mL of 2% solution, 7 days
[2] = test system: Bartlett pears; assay: Ethylene and CO2 evolution of 1-MCP treated Bartlett pears in air-tight chambers (GC-FID, gas analyzer); assay type: in vivo, Pyrus communis
Procedure: Thereafter, each experimental group of fruit was placed in a separate air-tight chamber connected to a gas chromatography (GC) instrument configured to draw samples every 8 hours over the course of 5 days, to measure ethylene via a flame ionizing detector (FID), and to measure CO2 via a gas analyzer. The experiment was performed with 4 pears per chamber in 3 replicates per experimental group. Monitoring was performed to detect minor variation in air flow rates in all experimental chambers used and detected variations were accounted for in subsequent calculations.

[3] = test system: whole pears; assay: Firmness of whole pears after 24 h immersion in glyoxylic acid solution (penetrometer); assay type: in vivo, pear; conditions: after 6 days
Procedure: In order to ripen whole pear fruit pretreated with 1-MCP, the fruits were treated by immersion in 0 mM, 0.1 mM, 0.25 mM, 0.5 mM glyoxylic acid. In other experiments, the fruits were treated by ambient fogging of fruit with 1 liter of solution of 1% (0.135 M), 2% (0.270 M) and 3% (0.405 M) glyoxylic acid solution (determined with 74 as the molecular weight of glyoxylic acid). The ambient fogging was carried out in a 192,000 cm^3 volume chamber using an ultrasonic humidifier. Various indicators of ripening were assayed thereafter. In a first assay, whole pears pre-treated with 1-MCP were immersed in 0 mM, 0.1 mM, 0.25 mM, or 0.5 mM glyoxylic acid solution for 24 hours. The fruit was assayed for firmness using a penetrometer six days after the immersion treatment. FIG. 7 graphically illustrates the reduction in firmness (i.e., development of softness) in pear fruit treated with various concentrations of glyoxylic acid. Non-1-MCP treated fruit (light bars) and 1-MCP treated fruit (dark bars) responded differently to glyoxylic acid treatment.

[4] = test system: 1-MCP pre-treated fruit (whole pear); assay: Firmness and Brix of 1-MCP pre-treated whole pears after ambient fogging with glyoxylic acid; assay type: in vivo; conditions: 1% (0.135 M) ambient fogging
Procedure: In order to ripen whole pear fruit pretreated with 1-MCP, the fruits were treated by immersion in 0 mM, 0.1 mM, 0.25 mM, 0.5 mM glyoxylic acid. In other experiments, the fruits were treated by ambient fogging of fruit with 1 liter of solution of 1% (0.135 M), 2% (0.270 M) and 3% (0.405 M) glyoxylic acid solution (determined with 74 as the molecular weight of glyoxylic acid). The ambient fogging was carried out in a 192,000 cm^3 volume chamber using an ultrasonic humidifier. Various indicators of ripening were assayed thereafter.
Next, 1-MCP pre-treated fruit were treated with glyoxylic acid using ambient fogging at 0% or 1% (0.135 M) glyoxylic acid. In this experiment, the fruit firmness was measured at two time points—immediately after the fogging treatment and again 8 days later using a penetrometer. […] The fruit were also assessed for ripeness by assaying the Brix values, which are indicative of total soluble solids and also serve as an industry standard for fruit ripening. […] All these experiments have been repeated multiple times and have been consistent with the above data.

[5] = test system: fruit slices of 1-MCP pre-treated pears; assay: Ethylene from slices of 1-MCP pre-treated pears immersed in glyoxylic acid, airtight jar; assay type: in vivo, pear; conditions: immersed 12-24 hours, measured after 8 hours
Procedure: The effect of glyoxylic acid on the restarting of ripening after 1-MCP-mediated arrest was also assayed with fruit that was sliced. Whole unripe pears were pre-treated with 1-MCP according to standard practice. The unripe pre-treated fruit were sliced and subject to glyoxylic acid treatments to assess its ability to induce ripening in the sliced fruit. First, fruit slices were immersed in 0.5 mM and 2.5 mM glyoxylic acid solution for 12-24 hours and placed in an airtight jar. Ethylene levels were measured after 8 hours. […] Slices immersed in the 2.5 mM glyoxylic also produced more (approximately 2-fold more) ethylene than the controls, although the increase in ethylene levels was not as high as for the 0.5 mM treatment.

[6] = test system: sliced pear fruit; assay: Ethylene evolved from sliced 1-MCP fruit treated with glyoxylic acid in sealed modified atmosphere bag; assay type: in vivo
Procedure: Next, a modified protocol was followed to expose fruit slices derived from 1-MCP pre-treated fruit to solutions of glyoxylic acid. Glyoxylic acid solutions ranging from 0.005% (0.675 mM), 0.150% (20.25 mM), 0.5% ([…]), 1% (0.135 M), 2% (0.270 M), 2.5% (0.338 M) and 3% (0.405 M) were prepared either alone or in conjunction with the Nature seal solution, which contains antioxidants that prevent fruit oxidation. 1-MCP fruit was sliced and treated with the 0.005%, 0.150%, 0.5% or 2.5% glyoxylic acid solutions and placed in a modified, sealed atmosphere bag. The amount of evolved ethylene was measured directly from the sealed bag of fruit. […] Finally, the 1-MCP fruit that were sliced and treated with 1%, 2% and 3% glyoxylic acid were evaluated in consumer preference trials in 2014 and 2015.

[7] = test system: whole pears with or without 1-MCP pre-treatment; assay: Internal ethylene of pears after ambient fogging with glyoxylic acid (gas extraction, GC/MS); assay type: in vivo, pear; conditions: both 1-MCP pre-treated and non-1-MCP pre-treated fruit
Procedure: As an additional confirmation of glyoxylic acid-mediated ripening of 1-MCP pre-treated pears, the internal ethylene of the fruit was also measured. First, the whole fruit with or without 1-MCP pre-treatment were treated with 0.5% ([…]) or 1% (0.135 M) glyoxylic acid using ambient fogging. Thereafter, one quarter of four separate pears from each treatment was sliced into four pieces and placed into a gas extraction chamber. A vacuum was created using an aspirator. For each experiment, 0.5 ml of extracted ethylene gas was injected into the GC/MS in three replicates. Measurements of ethylene in ppm were calculated using a previously established standard curve.

[8] = test system: rin tomato fruit; assay: Ripening (visual pigmentation) of rin mutant tomato fruit; assay type: in vivo; conditions: for ripening response (change in pigmentation) of rin tomato fruit: 2% GLA, observed over 14 days; for pigment response in untreated rin fruit on the same branches as treated fruit: GLA injection to a single fruit
[9] = test system: Haas avocado; assay: Avocado fruit flesh firmness after atomized GLA exposure (penetrometer); assay type: in vivo; conditions: for percentage of terminal ripened firmness achieved: 3% GLA 16 hours
Procedure: (§1) Fruits: Avocado and Mango fruits were purchased from Pullman Walmart and half were immediately placed in separate chambers for administration of glyoxylic acid, half were left on the bench top at 20° C.
(§2) GLA treatment: Humidification via sonication was accomplished by administering 1 liter of 3% (m/V) glyoxylic acid (GLA) solution in deionized water into the reservoir of a Crane humidifier model EE-5301. Atomized GLA solution was directed via surgical tubing from the humidifier into a custom acrylic chamber measuring approximately 40×60×60 cm containing 12 pears per treatment for 16 hours. Fruits were elevated from the chamber floor on metal baking racks to allow for exposure to GLA on all faces. One (1) 1 cm diameter port allowed for gas exchange between the atmosphere and chamber. A thick cloud of atomized GLA solution was visible in each chamber for the duration of each experimental exposure time. All experiments were conducted at 20° C.
(§3) Firmness measurements: Fruit firmness was measured via FTA penetrometer (GUSS Manufacturing, Norfolk, VA) at three equidistant locations around the middle of each fruit. Therefore, one biological replicate yielded three technical replicates. For each penetrometer measurement, approximately 2 cm^2 of fruit epidermal tissue was removed with a fruit peeler. Firmness measurements were taken at the locations on the fruit where epidermal tissue was removed. Firmness measurements were taken from three biological replicates per treatment at 1, 3, 5 and 7 days post treatment (DPT).
Firmness normalization: Firmness measurements were normalized to account for variability in starting fruit flesh firmness. At the start of each experiment, three untreated fruits were selected, and three fruit flesh measurements were taken from each and averaged. Firmness measurements from each exposure time treatment are reported as a percentage of the starting fruit flesh firmness average.

[10] = test system: Mango; assay: Mango fruit flesh firmness after atomized GLA exposure (penetrometer); assay type: in vivo; conditions: 3% GLA, 16 hours, readings confounded by variable rinds
Procedure: as §1, §2
as §3, with “Firmness measurements were taken from three biological replicates per treatment at 1, 3, 5 and 7 days post treatment (DPT).” left out

[11] = test system: Non-MCP treated D'Anjou pears; assay: Flesh firmness of non-MCP treated D'Anjou pears after atomized GLA exposure (penetrometer); assay type: in vivo, pear; conditions: 3% GLA, various exposure times, 1, 3, 5, 7 days post exposure
Procedure: Pear fruit: Non-MCP treated D'Anjou pears picked on Oct. 4, 2019 were obtained from Blue Bird packing house (Blue Bird Inc., Wenatchee Washington) and stored at 1° C. until use.
as §2, with “GLA” for “(m/V) glyoxylic acid (GLA)”, “solution” for “solution in deionized water”, “treatment. Pears” for “treatment for 16 hours. Fruits”
as §3, with “Firmness measurements were taken from three biological replicates per treatment at 1, 3, 5 and 7 days post treatment (DPT).” left out

SMILES: [Cl-].[Cl-].[Co+2] [CoCl2, reference compound]
- visible ripening response ([1]; in vivo): no visible ripening response

SMILES: S [RC-1, hydrogen sulfide]
- evolution of ethylene ([2]; 0.5 mM H2S): clear and steady increase in the evolution of ethylene
- level of respiration (evolved CO2) ([2]; 0.5 mM H2S (RC-1), 5 days monitoring): positive trend
- level of respiration (evolved CO2) ([2]; 0.5 mM H2S (RC-1), 5 days monitoring, listed as H2S): generally positive trend
- level of ethylene versus control fruit ([2]; 2.5 mM H2S): indistinguishable and very low
- level of respiration (evolved CO2) ([2]; 2.5 mM H2S, perhaps a stress response): higher levels of carbon dioxide
- time post-treatment at which ethylene evolution is observed ([2]; RC-1, pear fruit blocked for ripening by 1-MCP): 48 h

SMILES: O=CC(=O)O [glyoxylic acid]
- time at which ethylene evolution is observed ([2]; 0.25 mM RC-2, pear fruit blocked for ripening by 1-MCP): ≤ 16 h
- evolution of ethylene ([2]; 0.25 mM glyoxylic acid (RC-2)): clear and steady increase in the evolution of ethylene
- level of ethylene versus control fruit ([2]; 1, 2.5 and 10 mM glyoxylic acid): indistinguishable and very low
- maturation in pears after 1-MCP treatment ([2]; as little as 0.25 mM): induces maturation
- firmness effect in 1-MCP treated fruit ([3]; 0.5 mM immersion solution): especially enhanced over control
- firmness of non-1-MCP treated fruit ([3]; 0.5 mM): reduction in firmness is evident
- firmness of 1-MCP treated fruit ([3]; all concentrations (0.1, 0.25, 0.5 mM), 24 h immersion, compared to non-1-MCP treated fruit): drop in firmness
- fruit firmness ([4]; 8 days): 2 lbf
- Brix values (total soluble solids) ([4]; 8 days post fogging): significantly increased brix values
- ethylene generated relative to control slices ([5]; 0.5 mM): 5 fold
- ethylene generated relative to control slices ([5]; 2.5 mM): approximately 2 fold
- evolution of ethylene from sliced fruit versus control ([6]; 2.5% (337 mM) solution, sealed atmosphere bag): enhanced the evolution of ethylene; also recorded: significantly increased ethylene production
- ethylene evolved versus control fruit ([6]; some of a range of concentrations (0.005%-2.5%)): releases more ethylene than the control fruit
- internal ethylene evolution ([7]; 0.5% (0.6.75 mM) ambient fogging): effective in inducing the evolution of ethylene
- internal ethylene evolution ([7]; 1% (0.135 M) ambient fogging): effective in inducing the evolution of ethylene
- ripening response (pigmentation green to red) versus deionized water control [1]: accelerated ripening
- ripening response (pigmentation green to red) versus deionized water control ([1]; listed as GLA): accelerated ripening response
- ripening response (change in pigmentation) of rin tomato fruit [8]: change in pigmentation resembling that achieved at breaker stage in wild type tomatoes
- ripening response (change in pigmentation) of rin tomato fruit ([8]; listed as GLA): enables ripening of rin mutant fruit
- pigment response in untreated rin fruit on the same branches as treated fruit [8]: systemic
- pigment response in untreated rin fruit on the same branches as treated fruit ([8]; listed as GLA): Systemic pigmentation response
- percentage of terminal ripened firmness achieved ([9]; one day post treatment (control 31%)): 81%
- percentage of terminal ripened firmness achieved ([9]; three days post treatment (control 96%)): 92%
- ripening as measured by fruit flesh firmness versus non-GLA control ([9]; 3% GLA solution, atomized, 16 hours, listed as GLA): significant acceleration of ripening; also recorded: evidence for accelerated ripening
- ripening as measured by fruit flesh firmness [10]: trend towards accelerated ripening
- ripening as measured by pear fruit flesh firmness [11]: trend towards accelerated ripening
